Earlier results in patent US20120003311A9, “METHOD FOR CONTROLLED RELEASE OF AN ACID-UNSTABLE PHYSIOLOGICALLY ACTIVE SUBSTANCE” (EISAI R&D MANAGEMENT CO., LTD., priority 2004, published 2012).

Assays:
[1] = descending colon vs jejunum

absorption rate in the descending colon as percentage of that of the jejunum [1] [%] | Structure (SMILES) | half-life at pH 7 [hours]
– | COc1ccnc(C[S+]([O-])c2nc3cc(OC(F)F)ccc3[nH]2)c1OC (centres unmarked) [pantoprazole] | 39
≤ 20 | COCCCOc1ccnc(C[S+]([O-])c2nc3ccccc3[nH]2)c1C (centres unmarked) [rabeprazole sodium] | –
